The source of these data is patent US12421212B2, “Substituted benzenecarboxamides as IL-17A modulators” (DiCE Alpha, Inc., priority 2019, dated 2025).

In one test the target is T1, IL-17A/A (Homo sapiens, UniProt Q16552).
T1 construct: purchased Genscript Z03228
T1 sequence (Q16552 24-155): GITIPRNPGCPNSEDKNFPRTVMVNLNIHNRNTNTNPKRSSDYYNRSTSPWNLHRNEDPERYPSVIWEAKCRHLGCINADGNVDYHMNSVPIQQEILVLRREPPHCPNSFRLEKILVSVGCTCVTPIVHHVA
The test can be described thus: IL-17A/A HEK-Blue Cell Assay. It counts as cell-based. The note with it: HEK-Blue IL-17A reporter cell line, SEAP readout at A630, 20 hours incubation with IL-17A/A; top concentration 10 uM, 1 uM or 0.3 uM.
Regarding `CCC(=O)NC(C(=O)NCC1CCC1)C(C)c1ccc(NC(=O)[C@@H](NC(=O)c2ccnn2CC)[C@H]2CC[C@H](C)CC2)c(F)c1` (single isomer, unassigned) [Compound 662], the “IL-17A/A inhibition (pIC50)” value is “X3a (compounds were evaluated up to 0.3 uM and did not inhibit activity by >80%, however they showed some activity at 0.3 uM (less than 80% and more than 20%))”.

On to `CCC(=O)N[C@H](Cc1ccc(NC(=O)[C@H](Cc2ccc3ccccc3c2)NC(=O)c2ccnn2CC)c(F)c1)C(=O)N1CCN(C)CC1` [Compound 724], for which the “IL-17A/A inhibition (pIC50)” value is “X2b (compounds were evaluated up to 1 uM and inhibited activity at 1 uM by less than 20%)”.

As for `CCC(=O)N[C@H](C(=O)N1CCN(C)CC1)[C@@H](C)c1ccc(NC(=O)[C@@H](NC(=O)c2ccnn2CC)[C@H]2CC[C@H](C)CC2)c(F)c1` [Compound 543], the “IL-17A/A inhibition (pIC50)” value is “X3b (compounds were evaluated up to 0.3 uM and inhibited activity at 0.3 uM by less than 20%)”.

Regarding `CCC(=O)N[C@H](Cc1ccc(NC(=O)[C@H](CC2CCCCC2)NC(=O)c2ccnn2CC)c(F)c1)C(=O)N1CCN(C)CC1` [Compound 730], the “IL-17A/A inhibition (pIC50)” value was “X2b (compounds were evaluated up to 1 uM and inhibited activity at 1 uM by less than 20%)”.

As for `CCC(=O)N[C@@H](C(=O)N1CCN(C)CC1)[C@@H](C)c1ccc(NC(=O)C(NC(=O)c2ccnn2CC)C(CC)c2ccc(Cl)cc2)c(F)c1` (single isomer, unassigned) [Compound 560], the “IL-17A/A inhibition (pIC50)” value was “X2b (compounds were evaluated up to 1 uM and inhibited activity at 1 uM by less than 20%)”.

As for `CCC(=O)N[C@H](Cc1ccc(NC(=O)[C@@H](NC(=O)c2ccc(C(=O)NC)s2)C2CCCCC2)c(F)c1)C(=O)N1CCN(C)CC1` [Compound 779], the “IL-17A/A inhibition (pIC50)” value was “X1a (compounds were evaluated up to 10 uM and did not inhibit activity by >80%, however they showed some activity at 10 uM (less than 80% and more than 20%))”.

Consider `CCC(=O)N[C@@H](C(=O)N1CCN(C)CC1)[C@@H](C)c1ccc(NC(=O)C(NC(=O)c2ccnn2CC)C(CC)c2ccc(Cl)cc2)c(F)c1` (single isomer, unassigned) [Compound 563], for which the “IL-17A/A inhibition (pIC50)” value was “X2b (compounds were evaluated up to 1 uM and inhibited activity at 1 uM by less than 20%)”.

For `CCC(=O)N[C@@H](C(=O)N1CCN(C)CC1)[C@@H](C)c1ccc(NC(=O)C(NC(=O)c2ccnn2CC)C(C)C2CCC(C)CC2)c(F)c1` (stereo partly shown) [Compound 612], the “IL-17A/A inhibition (pIC50)” value was “X2b (compounds were evaluated up to 1 uM and inhibited activity at 1 uM by less than 20%)”.

As for `CCC(=O)N[C@H](Cc1ccc(NC(=O)[C@@H](NC(=O)c2noc3c2CNCC3)C2CCCCC2)c(F)c1)C(=O)N1CCN(C)CC1` [Compound 705], the “IL-17A/A inhibition (pIC50)” value was “X2b (compounds were evaluated up to 1 uM and inhibited activity at 1 uM by less than 20%)”.

Take `CCC(=O)N[C@H](Cc1ccc(NC(=O)[C@@H](NC(=O)c2c(CO)noc2C)C2CCCCC2)c(F)c1)C(=O)N1CCN(C)CC1` [Compound 777]: the “IL-17A/A inhibition (pIC50)” value is “X1b (compounds were evaluated up to 10 uM and inhibited activity at 10 uM by less than 20%)”.

For the compound `CCC(=O)N[C@@H](C(=O)N1CCN(C)CC1)[C@@H](C)c1ccc(NC(=O)[C@H](NC(=O)c2ccnn2CC)[C@H]2CC[C@H](C)CC2)c(F)c1` [Compound 541], the “IL-17A/A inhibition (pIC50)” value was “X3b (compounds were evaluated up to 0.3 uM and inhibited activity at 0.3 uM by less than 20%)”.

On to `CCC(=O)N[C@H](Cc1ccc(NC(=O)[C@H](Cc2ccccc2F)NC(=O)c2ccnn2CC)c(F)c1)C(=O)N1CCN(C)CC1` [Compound 725], for which the “IL-17A/A inhibition (pIC50)” value is “X2b (compounds were evaluated up to 1 uM and inhibited activity at 1 uM by less than 20%)”.

Turning to `C[C@@H](c1ccc(NC(=O)[C@@H](NC(=O)c2cnon2)[C@H]2CC[C@H](C)CC2)c(F)c1)[C@@H](NC(=O)c1cnns1)C(=O)N1CCN(C)CC1` [Compound 548], the “IL-17A/A inhibition (pIC50)” value was “X2b (compounds were evaluated up to 1 uM and inhibited activity at 1 uM by less than 20%)”.

As for `CCn1nccc1C(=O)N[C@H](C(=O)Nc1ccc(C[C@@H](Nc2ncc(C#N)c(OC)n2)C(=O)N2CCN(C)CC2)cc1F)C1CCCCC1` [Compound 701], the “IL-17A/A inhibition (pIC50)” value is “X2a (compounds were evaluated up to 1 uM and did not inhibit activity by >80%, however they showed some activity at 1 uM (less than 80% and more than 20%))”.

The same test, now with this note: HEK-Blue IL-17A reporter cell line, SEAP readout at A630, 20 hours incubation with IL-17A/A; top concentration 10 uM, 1 uM or 0.3 uM; read-out: IL-17A/A inhibition (pIC50) (converted).
With `CC(C)n1nccc1C(=O)N[C@H](C(=O)Nc1ccc([C@H](C)[C@@H](NC(=O)c2cnns2)C(=O)N2CCN(C)CC2)cc1F)C1CCCCCC1` [Compound 332], the IC50 is below 10 nM.

Regarding `CCC(=O)N[C@H](Cc1ccc(NC(=O)[C@@H](NC(=O)c2ccnn2CC)[C@@H](C)c2ccccc2)c(F)c1)C(=O)N1CCN(C)CC1` [Compound 647], the IC50 is 100 to 10000 nM.

As for `CCn1nccc1C(=O)N[C@H](C(=O)Nc1ccc([C@H](C)[C@@H](NC(=O)C(F)(F)CC)C(=O)N2CCN(C)[C@H](C)C2)cc1F)[C@H]1CC[C@H](C)CC1` [Compound 481], the IC50 is below 10 nM.

As for `CCC(=O)N[C@@H](C(=O)N1CCN(C)CC1)[C@@H](C)c1ccc(NC(=O)[C@@H](NC(=O)c2ccnn2CC)C2CCCCC2)c(F)c1` [Compound 229], the IC50 is 10 to 100 nM.

`CCC(=O)N[C@@H](C(=O)N1CCN(C)CC1)[C@@H](C)c1ccc(NC(=O)[C@@H](NC(=O)c2csc3ccncc23)C2CCCCC2)c(F)c1` [Compound 631]: the IC50 is 100 to 10000 nM.

As to `CCC(=O)N[C@@H](C(=O)N1CCN(C)CC1)[C@@H](C)c1ccc(NC(=O)[C@@H](NC(=O)c2nonc2CC)[C@H](OC)c2ccc(F)cc2)c(F)c1` [Compound 611], the IC50 was 10 to 100 nM.

`CCn1nccc1C(=O)N[C@H](C(=O)Nc1ccc([C@H](C)[C@@H](NC(=O)NC2CCC2)C(=O)N2CCN(C)CC2)cc1F)C1CCCCC1` [Compound 628]: the IC50 was 100 to 10000 nM.

As to `C[C@@H](c1ccc(NC(=O)[C@@H](NC(=O)C(F)(F)c2cccc(C#N)c2)C2CCCCC2)cc1)[C@@H](NC(=O)c1cnns1)C(=O)N1CCN(C)CC1` [Compound 301], the IC50 was below 10 nM.

For `COc1ncc(C(F)(F)C(=O)N[C@H](C(=O)Nc2ccc([C@H](C)[C@@H](NC(=O)c3cnns3)C(=O)N3CCN(C)CC3)cc2F)[C@H]2CC[C@H](C)CC2)cn1` [Compound 621], the IC50 was 10 to 100 nM.

Regarding `CCn1nccc1C(=O)N[C@H](C(=O)Nc1ccc([C@H](C)[C@@H](NC(=O)c2cc(C)no2)C(=O)N2CCN(C)CC2)cc1F)C1CCCCC1` [Compound 656], the IC50 is 100 to 10000 nM.

As to `CCn1nccc1C(=O)N[C@H](C(=O)Nc1ccc([C@H](C)[C@@H](NC(=O)C(C)C2CC2)C(=O)N2CCN(C)[C@@H](C)C2)cc1F)[C@H]1CC[C@H](C)CC1` (stereo partly shown) [Compound 433], the IC50 was below 10 nM.

With `CCC(=O)N[C@H](Cc1ccc(NC(=O)[C@@H](NC(=O)c2ccnn2CC)C2CCCCC2)c(F)c1)C(=O)N1CCNC2(CC2)C1` [Compound 690], the IC50 is 100 to 10000 nM.

On to `CCC(=O)N[C@@H](C(=O)N1CCN(C)CC1)[C@@H](C)c1ccc(NC(=O)C(NC(=O)c2conc2CC)C2CCc3ccccc32)c(F)c1` (stereo partly shown) [Compound 287], for which the IC50 was below 10 nM.

For the compound `CCC(=O)N[C@@H](C(=O)N1CCN(C)CC1)[C@@H](C)c1ccc(NC(=O)C(NC(=O)c2nonc2CC)C(CC)c2ccc(Cl)cc2)c(F)c1` (stereo partly shown) [Compound 566], the IC50 is 10 to 100 nM.

Consider `CCC(=O)N[C@@H](C(=O)N1CCC(C)CC1)[C@@H](C)c1ccc(NC(=O)[C@@H](NC(=O)c2ccnn2CC)[C@H]2CC[C@H](C)CC2)c(F)c1` [Compound 370], for which the IC50 was 10 to 100 nM.

For `CCC(=O)N[C@@H](C(=O)N1CCN(C)CC1)[C@@H](C)c1ccc(NC(=O)[C@@H](NC(=O)c2ccnn2CC)C2CCC(C)(C)CC2)c(F)c1` [Compound 296], the IC50 was 10 to 100 nM.

As for `CCC(=O)N[C@@H](C(=O)N1CCN(C)CC1)[C@@H](C)c1ccc(NC(=O)[C@@H](NC(=O)c2cccn2CC)C2CCCCC2)c(F)c1` [Compound 254], the IC50 is 10 to 100 nM.

`CCC(=O)N[C@@H](C(=O)N1CCN(C)CC1)[C@@H](C)c1ccc(NC(=O)C(NC(=O)c2ccnn2C(C)C)[C@@H](C)c2ccccc2)c(F)c1` (stereo partly shown) [Compound 291]: the IC50 was 10 to 100 nM.

For `CCC(=O)N[C@@H](C(=O)N1CCN(C)CC1)[C@@H](C)c1ccc(NC(=O)C(NC(=O)c2ccnn2CC)[C@@H](C)c2ccccc2)c(F)c1` (stereo partly shown) [Compound 289], the IC50 was 10 to 100 nM.

Consider `CCC(=O)N[C@@H](C(=O)N1CCN(C)CC1)[C@@H](C)c1ccc(NC(=O)[C@@H](NC(=O)c2csc3ncccc23)C2CCCCC2)c(F)c1` [Compound 250], for which the IC50 was 10 to 100 nM.

As for `CCC(=O)N[C@@H](C(=O)N1CCN(C)CC1)[C@@H](C)c1ccc(NC(=O)C(NC(=O)c2ccnn2CC)C(CC)c2ccc(Cl)cc2)c(F)c1` (single isomer, unassigned) [Compound 562], the IC50 is 10 to 100 nM.

On to `CCC(=O)N[C@@H](C(=O)N1CCN(C)CC1)[C@@H](C)c1ccc(NC(=O)[C@@H](NC(=O)c2ccnn2CC)C2CCC(F)(F)CC2)c(F)c1` [Compound 240], for which the IC50 is 10 to 100 nM.

For `CCc1nonc1C(=O)N[C@H](C(=O)Nc1ccc([C@H](C)[C@@H](NC(=O)[C@@H]2CCCO2)C(=O)N2CCN(C)CC2)cc1F)[C@H]1CC[C@H](C)CC1` [Compound 498], the IC50 is 10 to 100 nM.

Take `CCn1nccc1C(=O)N[C@H](C(=O)Nc1ccc(C[C@@H](NC(=O)c2cnns2)C(=O)N2CCN(C)CC2)cc1F)C1CCCCC1` [Compound 322]: the IC50 was 10 to 100 nM.

Regarding `CCC(=O)N[C@@H](C(=O)N1CCN(C)CC1)[C@@H](C)c1ccc(NC(=O)[C@@H](NC(=O)C(F)(F)c2cncc(OC)c2)C2CCCCC2)c(F)c1` [Compound 246], the IC50 was 10 to 100 nM.

With `CCC(=O)N[C@H](Cc1ccc(NC(=O)[C@@H](NC(=O)C(F)(F)c2cncs2)C2CCCCC2)c(F)c1)C(=O)N1CCN(C)CC1` [Compound 213], the IC50 was 100 to 10000 nM.
